Among the test systems are RXF-631 renal; SN12C renal; KM20L2 colon; M19-MEL melanoma; DMS 114 small cell lung; LXFL 529 NSCLC; DMS 273 small cell lung; SNB-78 CNS; DLD-1 colon; XF 498 CNS; HOP-18 NSCLC.
Experiment in all cases: NCI tumour cell line growth inhibition, 48 h

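48-hour exposure; five concentrations; linearly interpolated endpoints. The concentration for full growth arrest is given as TGI.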

The results in this text go back to PubChem BioAssay (NCI).

Regarding `COc1ccc(C2CC(=O)c3c(O)cc(O)cc3O2)cc1O` (configuration not stated), the TGI in the experiment with RXF-631 renal, in the experiment with SN12C renal, in the experiment on KM20L2 colon, in the experiment with M19-MEL melanoma, in the experiment with DMS 114 small cell lung and with LXFL 529 NSCLC was over 100 µM throughout. For the same compound, the TGI with DMS 273 small cell lung, in the experiment on SNB-78 CNS, in the experiment on DLD-1 colon and with XF 498 CNS was over 100 µM in each case.
`O=C1[C@@H]2C(c3ccccc3Br)=NO[C@@H]2C(=O)N1c1ccc(Cc2ccc(N3C(=O)[C@H]4C(c5ccccc5Br)=NO[C@H]4C3=O)cc2)cc1`: the TGI in the experiment on RXF-631 renal, in the experiment on SN12C renal, with KM20L2 colon, in the experiment on M19-MEL melanoma, in the experiment with HOP-18 NSCLC and in the experiment on DMS 114 small cell lung was over 100 µM throughout. The TGI with LXFL 529 NSCLC, with DMS 273 small cell lung, with SNB-78 CNS, in the experiment on DLD-1 colon and with XF 498 CNS was over 100 µM in each case.
For `CC(C)(C)NNC(=O)/C(=C/c1ccc([N+](=O)[O-])cc1)NC(=O)c1ccccc1`, the TGI was over 100 µM with SN12C renal; over 100 µM in the experiment with KM20L2 colon; over 100 µM with M19-MEL melanoma; over 100 µM with HOP-18 NSCLC; 35.9 µM in the experiment on DMS 114 small cell lung; over 100 µM in the experiment with LXFL 529 NSCLC. Also, the TGI is 80 µM in the experiment with DMS 273 small cell lung, over 100 µM in the experiment on SNB-78 CNS, over 100 µM in the experiment on DLD-1 colon and over 100 µM in the experiment with XF 498 CNS.
For `N#Cc1ccccc1NC(=O)/C(=N\N)C(C(=O)c1ccncc1)C1OC(=O)c2ccccc21` (configuration not stated), the TGI in the experiment with SN12C renal, in the experiment with KM20L2 colon, in the experiment with M19-MEL melanoma, with LXFL 529 NSCLC and in the experiment with XF 498 CNS was over 100 µM each time.
Turning to `CC(C)(C)OC1=C(OC(C)(C)C)C(O)(c2ccccc2)C1=O` (configuration not stated), the TGI in the experiment with RXF-631 renal, with SN12C renal, in the experiment on M19-MEL melanoma, in the experiment on HOP-18 NSCLC, with DMS 114 small cell lung and with LXFL 529 NSCLC was over 100 µM in each case. Moreover, the TGI in the experiment on DMS 273 small cell lung, in the experiment with SNB-78 CNS and with DLD-1 colon was over 100 µM each time.
For the compound `CC(NS(=O)(=O)c1ccc([N+](=O)[O-])cc1)C(=O)O` (configuration not stated), the TGI in the experiment on RXF-631 renal, in the experiment on SN12C renal, in the experiment on KM20L2 colon, with HOP-18 NSCLC, in the experiment with LXFL 529 NSCLC and with DMS 273 small cell lung was over 100 µM each time. In addition, the TGI in the experiment on DLD-1 colon and in the experiment with XF 498 CNS was over 100 µM throughout.
For the compound `O=C(Nc1ccccc1-c1n[nH]c(=S)[nH]c1=O)C(F)(F)F`, the TGI in the experiment on SN12C renal, in the experiment with M19-MEL melanoma, in the experiment with DMS 114 small cell lung, in the experiment with LXFL 529 NSCLC, in the experiment with DMS 273 small cell lung and with SNB-78 CNS was over 100 µM each time. Besides, the TGI in the experiment with DLD-1 colon and in the experiment on XF 498 CNS was over 100 µM each time.
Consider `COC(=O)C1=C(c2ccc(OC)c(OC)c2)OC(c2ccc(OC)c(OC)c2)C1` (configuration not stated), for which the TGI with SN12C renal was over 100 µM; in the experiment with KM20L2 colon it was over 100 µM; in the experiment with M19-MEL melanoma, over 100 µM; in the experiment with HOP-18 NSCLC it was over 100 µM; in the experiment on DMS 114 small cell lung, 77.5 µM; in the experiment on LXFL 529 NSCLC it was 62.1 µM. The TGI in the experiment with DMS 273 small cell lung is over 100 µM; in the experiment on SNB-78 CNS it was over 100 µM; with DLD-1 colon it was over 100 µM; in the experiment with XF 498 CNS, 65.2 µM.
Take `COc1c(C=O)c2c(c(OC)c1OC)-c1ccc(OC)c(=O)cc1[C@@H](NC(C)=O)CC2`: the TGI was 18.2 µM in the experiment with RXF-631 renal; over 100 µM in the experiment with SN12C renal; 0.218 µM with KM20L2 colon; over 100 µM with M19-MEL melanoma; over 100 µM with HOP-18 NSCLC; 0.0364 µM with DMS 114 small cell lung. In addition, the TGI in the experiment on LXFL 529 NSCLC is over 100 µM; in the experiment on DMS 273 small cell lung, over 100 µM; in the experiment with SNB-78 CNS, over 67.6 µM; in the experiment on DLD-1 colon, over 100 µM; in the experiment with XF 498 CNS, 37 µM.
Turning to `CC(C)/C=C1\CCC(CN2CCCC2)C1=O` (configuration not stated), the TGI in the experiment with SN12C renal is 34.8 µM; in the experiment with KM20L2 colon it was 36 µM; in the experiment with M19-MEL melanoma, over 60.4 µM; in the experiment with HOP-18 NSCLC it was 17.3 µM; in the experiment with DMS 114 small cell lung it was 34.5 µM; in the experiment on LXFL 529 NSCLC, 10.1 µM. The TGI was 51.2 µM in the experiment with SNB-78 CNS, 10.4 µM in the experiment with DLD-1 colon and 31.5 µM with XF 498 CNS.
With `CN(C)c1ccc2c(=O)c3ccccc3oc2n1`, the TGI in the experiment with RXF-631 renal, in the experiment on SN12C renal, in the experiment with KM20L2 colon, in the experiment on M19-MEL melanoma, with DMS 114 small cell lung and in the experiment with LXFL 529 NSCLC was over 100 µM in each case. For the same compound, the TGI with DMS 273 small cell lung, with SNB-78 CNS, with DLD-1 colon and with XF 498 CNS was over 100 µM each time.
As for `Cc1ccc(NC(=O)c2cc3cc(N=Nc4ccc(Br)cc4)ccc3oc2=O)cc1`, the TGI in the experiment on SN12C renal, in the experiment with DMS 114 small cell lung, with DMS 273 small cell lung, in the experiment with SNB-78 CNS, in the experiment with DLD-1 colon and in the experiment with XF 498 CNS was over 100 µM each time.
`O=C(Nc1ccc(Cl)cc1Cl)C1C(=O)N(c2ccc(Cl)cc2Cl)C(=O)/C1=N\Nc1ccc([N+](=O)[O-])cc1[N+](=O)[O-]` (configuration not stated): the TGI is over 100 µM with RXF-631 renal; over 100 µM with SN12C renal; over 100 µM in the experiment on KM20L2 colon; over 100 µM in the experiment with M19-MEL melanoma; over 100 µM in the experiment on HOP-18 NSCLC; 66.8 µM with DMS 114 small cell lung. For the same compound, the TGI in the experiment with LXFL 529 NSCLC, in the experiment on DMS 273 small cell lung, in the experiment on SNB-78 CNS and with DLD-1 colon was over 100 µM each time.
As to `CC1CC[C@]2(C(=O)O)CCC3(COC(=O)/C=C\c4ccc(O)cc4)C(=CCC4[C@@]5(C)CC[C@H](O)C(C)(C)C5CC[C@]43C)[C@@H]2[C@H]1C` (some centres not stated), the TGI in the experiment on RXF-631 renal was 77.9 µM; in the experiment with SN12C renal it was 54.2 µM; in the experiment on KM20L2 colon it was 33.6 µM; with M19-MEL melanoma, 50.8 µM; in the experiment on HOP-18 NSCLC it was 69.8 µM; with DMS 114 small cell lung, over 100 µM. In addition, the TGI in the experiment on LXFL 529 NSCLC is over 100 µM; with DMS 273 small cell lung it was 50.3 µM; with SNB-78 CNS it was over 100 µM; with DLD-1 colon it was 30.8 µM.
